Read-outs that look alike come from different tables or passages of the source.
Key:
[1] = target: CDK7/cyclin H (Homo sapiens, UniProt P50613); assay: Kinase assay, incorporation of radioactive phosphate from ATP; assay type: biochemical; details: 100 μM ATP, 30° C.; read-out: Kinase inhibition Ki CDK7/cyclin H
Method: (§1) The compounds from the examples above were investigated for their ability to inhibit the enzymatic activity of various protein kinases. This was achieved by measurement of incorporation of radioactive phosphate from ATP into appropriate polypeptide substrates. Recombinant protein kinases and kinase complexes were produced or obtained commercially. Assays were performed using 96-well plates and appropriate assay buffers (typically 25 mM β-glycerophosphate, 20 mM MOPS, 5 mM EGTA, 1 mM DTT, 1 mM […], pH 7.4), into which were added 2-4 μg of active enzyme with appropriate substrates. The reactions were initiated by addition of Mg/ATP mix (15 mM MgCl2+100 μM ATP with 30-50 kBq per well of [γ-^32P]-ATP) and mixtures incubated as required at 30° C. Reactions were stopped on ice, followed by filtration through p81 filterplates or GF/C filterplates (Whatman Polyfiltronics, Kent, UK). After washing 3 times with 75 mM aq orthophosphoric acid, plates were dried, scintillant added and incorporated radioactivity measured in a scintillation counter (TopCount, Packard Instruments, Pangboume, Berks, UK). Compounds for kinase assay were made up as 10 mM stocks in DMSO and diluted into 10% DMSO in assay buffer. Data was analysed using curve-fitting software (GraphPad Prism version 3.00 for Windows, GraphPad Software, San Diego Calif. USA) to determine IC50 values (concentration of test compound which inhibits kinase activity by 50%.).

[2] = target: GSK3β (Homo sapiens, UniProt P49841); assay: as above; assay type: biochemical; details: 100 μM ATP, 30° C.; read-out: Kinase inhibition Ki GSK3β
Method: as §1

[3] = target: T1, Aurora-A (Homo sapiens, UniProt O14965); assay: as above; assay type: biochemical; details: 100 μM ATP, 30° C.; read-out: Kinase inhibition Ki Aurora-A
T1 sequence (O14965 1-403): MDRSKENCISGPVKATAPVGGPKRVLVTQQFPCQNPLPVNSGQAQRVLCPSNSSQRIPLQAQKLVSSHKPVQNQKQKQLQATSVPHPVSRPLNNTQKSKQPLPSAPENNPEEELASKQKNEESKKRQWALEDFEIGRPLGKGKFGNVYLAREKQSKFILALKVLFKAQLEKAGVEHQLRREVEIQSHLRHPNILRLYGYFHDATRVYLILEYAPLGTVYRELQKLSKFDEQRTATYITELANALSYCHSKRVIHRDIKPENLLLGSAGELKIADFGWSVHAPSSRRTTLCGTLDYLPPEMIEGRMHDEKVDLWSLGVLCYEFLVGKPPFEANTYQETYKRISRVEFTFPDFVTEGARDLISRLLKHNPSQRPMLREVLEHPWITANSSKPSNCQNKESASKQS
Method: as §1

[4] = target: CDK2/cyclin E (Homo sapiens, UniProt P24941); assay: as above; assay type: biochemical; details: 100 μM ATP, 30° C.; read-out: Kinase inhibition Ki CDK2/cyclin E
Method: as §1

[5] = target: CDK1/cyclin B (Homo sapiens, UniProt P06493); assay: as above; assay type: biochemical; details: 100 μM ATP, 30° C.; read-out: Kinase inhibition Ki CDK1/cyclin B
Method: as §1

[6] = target: CDK2/cyclin A (Homo sapiens, UniProt P24941); assay: as above; assay type: biochemical; details: 100 μM ATP, 30° C.; read-out: Kinase inhibition Ki CDK2/cyclin A
Method: as §1

[7] = target: CDK4/cyclin D1 (Homo sapiens, UniProt P11802); assay: as above; assay type: biochemical; details: 100 μM ATP, 30° C.; read-out: Kinase inhibition Ki CDK4/cyclin D1
Method: as §1

[8] = target: CDK9/cyclin T1 (Homo sapiens, UniProt P50750); assay: as above; assay type: biochemical; details: 100 μM ATP, 30° C.; read-out: Kinase inhibition Ki CDK9/cyclin T1
Method: as §1

[9] = test system: A549; assay: 72-h MTT cytotoxicity assay; assay type: cell-based; details: Homo sapiens
Method: (§2) The compounds from the examples above were subjected to a standard cellular proliferation assay using human tumour cell lines obtained from the ATCC (American Type Culture Collection, 10801 University Boulevard, Manessas, Va. 20110-2209, USA). Standard 72-h MTT (thiazolyl blue; 3-[4,5-dimethylthiazol-2-yl]-2,5-diphenyltetrazolium bromide) assays were performed. In short: cells were seeded into 96-well plates according to doubling time and incubated overnight at 37° C. Test compounds were made up in DMSO and a 1/3 dilution series prepared in 100 μL cell media, added to cells (in triplicates) and incubated for 72 ho at 37° C. MTT was made up as a stock of 5 mg/mL in cell media and filter-sterilised. Media was removed from cells followed by a wash with 200 μL PBS. MTT solution was then added at 20 μL per well and incubated in the dark at 37° C. for 4 h. MTT solution was removed and cells again washed with 200 μL PBS. MTT dye was solubilised with 200 μL per well of DMSO with agitation. Absorbance was read at 540 nm and data analysed using curve-fitting software (GraphPad Prism version 3.00 for Windows, GraphPad Software, San Diego Calif. USA) to determine IC50 values (concentration of test compound which inhibits cell growth by 50%). Various modifications and variations of the described aspects of the invention will be apparent to those skilled in the art without departing from the scope and spirit of the invention. Although the invention has been described in connection with specific preferred embodiments, it should be understood that the invention as claimed should not be unduly limited to such specific embodiments. Indeed, various modifications of the described modes of carrying out the invention which are obvious to those skilled in the relevant fields are intended to be within the scope of the following claims.

[10] = test system: HT29; assay: 72-h MTT cytotoxicity assay; assay type: cell-based; details: Homo sapiens, HT-29
Method: as §2

[11] = test system: Saos-2; assay: 72-h MTT cytotoxicity assay; assay type: cell-based; details: Homo sapiens
Method: as §2

[12] = test system: transformed human cell lines (A549, HT29, Saos-2); assay: 72-h MTT cytotoxicity assay, average over cell lines; assay type: cell-based
Method: as §2

[13] = average of A549, HT29, Saos-2, read-out: 72-h MTT IC50 Average

Chain of CDK4/cyclin D1 (P11802 whole entry): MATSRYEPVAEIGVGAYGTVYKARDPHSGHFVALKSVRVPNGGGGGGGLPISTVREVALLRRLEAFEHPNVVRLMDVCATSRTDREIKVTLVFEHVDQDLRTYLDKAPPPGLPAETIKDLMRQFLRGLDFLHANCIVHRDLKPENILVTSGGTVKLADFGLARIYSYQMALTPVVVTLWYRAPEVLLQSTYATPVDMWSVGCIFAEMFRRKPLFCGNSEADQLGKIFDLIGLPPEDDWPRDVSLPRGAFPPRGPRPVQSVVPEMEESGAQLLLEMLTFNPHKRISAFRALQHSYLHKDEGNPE
Chain of CDK4/cyclin D1 (P24385 whole entry partner): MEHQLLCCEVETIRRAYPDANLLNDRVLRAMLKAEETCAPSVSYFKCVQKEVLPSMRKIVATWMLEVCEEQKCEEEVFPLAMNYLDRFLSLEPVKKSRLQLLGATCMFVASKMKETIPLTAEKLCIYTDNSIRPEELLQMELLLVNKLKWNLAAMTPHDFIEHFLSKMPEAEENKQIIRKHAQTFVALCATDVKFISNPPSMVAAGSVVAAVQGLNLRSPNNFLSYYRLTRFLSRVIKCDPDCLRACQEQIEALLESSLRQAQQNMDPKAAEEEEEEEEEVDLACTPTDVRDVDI
Chain of CDK7/cyclin H (P50613 whole entry): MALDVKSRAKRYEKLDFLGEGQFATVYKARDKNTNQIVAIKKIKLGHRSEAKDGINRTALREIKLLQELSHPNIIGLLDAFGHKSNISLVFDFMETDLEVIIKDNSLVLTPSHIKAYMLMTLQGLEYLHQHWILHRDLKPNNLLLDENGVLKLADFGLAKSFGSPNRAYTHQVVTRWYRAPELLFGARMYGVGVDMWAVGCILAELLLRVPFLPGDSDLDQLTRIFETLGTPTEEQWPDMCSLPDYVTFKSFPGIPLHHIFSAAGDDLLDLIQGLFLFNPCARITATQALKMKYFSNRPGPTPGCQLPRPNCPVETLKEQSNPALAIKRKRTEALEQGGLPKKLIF
Chain of CDK7/cyclin H (P51946 whole entry partner): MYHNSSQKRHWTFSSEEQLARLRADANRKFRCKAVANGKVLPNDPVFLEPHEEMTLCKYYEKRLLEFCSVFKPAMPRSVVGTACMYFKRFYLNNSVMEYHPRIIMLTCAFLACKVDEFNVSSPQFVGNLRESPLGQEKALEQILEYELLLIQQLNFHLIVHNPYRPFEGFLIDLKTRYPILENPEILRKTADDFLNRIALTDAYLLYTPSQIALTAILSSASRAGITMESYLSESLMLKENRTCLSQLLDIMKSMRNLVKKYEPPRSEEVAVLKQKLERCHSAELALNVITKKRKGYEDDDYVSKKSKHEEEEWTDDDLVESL
Chain of CDK9/cyclin T1 (P50750 whole entry): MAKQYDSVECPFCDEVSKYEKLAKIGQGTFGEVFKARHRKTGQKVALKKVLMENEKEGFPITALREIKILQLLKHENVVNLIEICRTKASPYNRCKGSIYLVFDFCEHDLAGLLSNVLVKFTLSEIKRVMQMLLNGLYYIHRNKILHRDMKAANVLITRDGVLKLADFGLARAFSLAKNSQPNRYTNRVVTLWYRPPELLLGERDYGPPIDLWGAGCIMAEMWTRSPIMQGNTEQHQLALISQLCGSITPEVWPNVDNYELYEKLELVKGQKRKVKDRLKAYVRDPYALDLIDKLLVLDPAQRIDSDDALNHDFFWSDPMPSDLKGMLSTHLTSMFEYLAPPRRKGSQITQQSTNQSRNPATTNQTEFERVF
Chain of CDK9/cyclin T1 (O60563 whole entry partner): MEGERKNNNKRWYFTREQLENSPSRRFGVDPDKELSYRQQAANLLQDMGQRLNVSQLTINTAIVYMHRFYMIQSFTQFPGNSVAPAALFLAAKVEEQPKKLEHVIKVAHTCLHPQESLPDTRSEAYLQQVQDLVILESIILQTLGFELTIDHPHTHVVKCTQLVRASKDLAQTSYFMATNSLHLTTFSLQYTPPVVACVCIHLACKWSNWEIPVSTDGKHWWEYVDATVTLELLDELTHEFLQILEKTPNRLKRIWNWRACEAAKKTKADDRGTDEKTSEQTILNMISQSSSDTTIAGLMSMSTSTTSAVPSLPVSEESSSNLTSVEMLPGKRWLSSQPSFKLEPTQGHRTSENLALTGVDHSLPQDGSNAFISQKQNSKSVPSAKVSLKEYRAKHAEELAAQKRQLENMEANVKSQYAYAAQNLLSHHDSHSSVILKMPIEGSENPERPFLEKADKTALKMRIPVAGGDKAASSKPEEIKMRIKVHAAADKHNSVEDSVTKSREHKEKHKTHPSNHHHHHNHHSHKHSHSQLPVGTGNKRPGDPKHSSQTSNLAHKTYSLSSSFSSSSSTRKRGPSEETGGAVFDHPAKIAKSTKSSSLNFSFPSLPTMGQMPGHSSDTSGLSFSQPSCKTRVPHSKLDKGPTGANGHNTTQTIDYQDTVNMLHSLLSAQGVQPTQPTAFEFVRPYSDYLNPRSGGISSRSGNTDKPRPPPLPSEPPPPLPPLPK
Chain of CDK1/cyclin B (P06493 whole entry): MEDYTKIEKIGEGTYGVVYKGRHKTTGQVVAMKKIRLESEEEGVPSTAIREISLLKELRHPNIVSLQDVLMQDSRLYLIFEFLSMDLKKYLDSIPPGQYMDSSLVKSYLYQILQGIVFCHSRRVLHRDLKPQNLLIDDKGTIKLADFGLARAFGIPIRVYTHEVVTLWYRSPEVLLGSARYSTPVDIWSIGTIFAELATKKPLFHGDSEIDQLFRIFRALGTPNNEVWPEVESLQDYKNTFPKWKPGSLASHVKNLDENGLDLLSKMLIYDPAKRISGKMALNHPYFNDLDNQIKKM
Chain of CDK1/cyclin B (P14635 whole entry partner): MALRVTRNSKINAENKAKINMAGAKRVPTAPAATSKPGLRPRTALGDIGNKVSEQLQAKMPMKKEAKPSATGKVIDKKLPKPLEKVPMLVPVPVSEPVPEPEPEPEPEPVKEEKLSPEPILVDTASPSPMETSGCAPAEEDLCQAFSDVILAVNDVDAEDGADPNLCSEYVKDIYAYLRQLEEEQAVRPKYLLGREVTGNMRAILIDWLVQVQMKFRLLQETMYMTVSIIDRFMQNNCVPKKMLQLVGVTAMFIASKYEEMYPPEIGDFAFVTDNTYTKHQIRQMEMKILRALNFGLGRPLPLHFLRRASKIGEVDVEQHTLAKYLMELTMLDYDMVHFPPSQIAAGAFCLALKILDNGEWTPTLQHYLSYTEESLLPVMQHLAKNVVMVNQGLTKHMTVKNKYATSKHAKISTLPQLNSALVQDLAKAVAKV
Chain of GSK3β (P49841 whole entry): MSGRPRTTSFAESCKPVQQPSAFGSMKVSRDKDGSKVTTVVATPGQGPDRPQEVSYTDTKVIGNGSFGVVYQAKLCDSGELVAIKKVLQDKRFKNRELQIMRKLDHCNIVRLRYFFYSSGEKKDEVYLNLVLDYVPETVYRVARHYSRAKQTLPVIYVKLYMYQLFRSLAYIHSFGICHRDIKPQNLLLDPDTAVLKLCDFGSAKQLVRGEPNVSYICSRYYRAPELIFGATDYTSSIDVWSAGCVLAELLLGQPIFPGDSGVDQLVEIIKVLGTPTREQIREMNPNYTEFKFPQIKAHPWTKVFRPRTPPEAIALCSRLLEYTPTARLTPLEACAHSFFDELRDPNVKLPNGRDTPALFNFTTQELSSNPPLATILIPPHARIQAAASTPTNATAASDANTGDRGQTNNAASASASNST

| Ki [1] | Ki [2] | Ki [3] | Ki [4] | Ki [5] | Ki [6] | Ki [7] | Ki [8] | melting point | Compound | IC50 [9] | IC50 [10] | IC50 [11] | IC50 [12, 13] | IC50 ([12]; in vitro, read-out: IC50 value (average) against one or more transformed human cell lines, 72-h MTT cytotoxicity assay) |
| --- | --- | --- | --- | --- | --- | --- | --- | --- | --- | --- | --- | --- | --- | --- |
| 7.2 µM | 0.11 µM | 0.86 µM | 0.35 µM | 4.2 µM | 1.7 µM | 0.66 µM | 0.97 µM |  | Cc1nc(C)c(-c2ccnc(Nc3ccc(Cl)nc3)n2)s1 [Compound 3, (6-Chloro-pyridin-3-yl)-[4-(2,4-dimethyl-thiazol-5-yl)-pyrimidin-2-yl]-amine] | 9.8 µM | 2.8 µM | 4.4 µM | 5.7 ± 3.7 µM | < 10 µM |
|  |  |  | 1.5 µM |  |  | 4.1 µM |  | 297 to 300 °C | Cc1nc(C)c(-c2ccnc(Nc3ccc[n+](C)c3)n2)s1 [Compound 2, 3-[4-(2,4-Dimethyl-thiazol-5-yl)-pyrimidin-2-ylamino]-1-methyl-pyridinium] | 11.6 µM | 86 µM | 48.5 µM | 48.7 ± 37.2 µM |  |
